# From patent US20070093520A1, “Method of treatment of diarrhea-predominant irritable bowel syndrome in a subject” (priority 2005, published 2007)
# Test system: diarrhea-predominant IBS subjects
# Experiment: 3007 Study: open-label 52-week safety study, adverse events and withdrawals
# Details: Overall
smiles,measurement,value
"Cc1nccn1C[C@H]1CCc2c(c3cccc4c3n2CCC4)C1=O [cilansetron, (R)-(−)-4,5,6,8,9,10-hexahydro-10-[(2-methyl-1H-imidazol-1-yl)methyl]-11H-pyrido-[3,2,1-jk]-carbazol-11-one]",TEAE: Faeces Abnormal,9 (2%) n (%)
same,TEAE: Faeces Hard,6 (1%) n (%)
same,TEAE: Fall,4 (<1%) n (%)
same,TEAE: Fatigue,13 (2%) n (%)
same,TEAE: Fatigue Aggravated,1 (<1%) n (%)
same,TEAE: Febrile Disorders,3 (<1%) n (%)
same,TEAE: Fibroma NOS,1 (<1%) n (%)
same,TEAE: Fibromyalgia,1 (<1%) n (%)
same,TEAE: Flatulence,26 (5%) n (%)
same,"TEAE: Flatulence, Bloating and Distension",36 (7%) n (%)
same,TEAE: Fluid Intake Increased,1 (<1%) n (%)
same,TEAE: Fluid in Middle Ear,1 (<1%) n (%)
same,TEAE: Flushing,1 (<1%) n (%)
same,TEAE: Food Allergy,1 (<1%) n (%)
same,TEAE: Food Poisoning NOS,3 (<1%) n (%)
same,TEAE: Foot Fracture,2 (<1%) n (%)
same,TEAE: Fractures and Dislocations NEC,1 (<1%) n (%)
same,TEAE: Frequent Bowel Movements,1 (<1%) n (%)
same,TEAE: Fungal Infection NOS,3 (<1%) n (%)
same,TEAE: Fungal Infections NEC,8 (1%) n (%)
same,TEAE: Gamma-Glutamyltransferase Increased,8 (1%) n (%)
same,TEAE: Gastric Irritation,1 (<1%) n (%)
same,TEAE: Gastritis (Excl Infective),3 (<1%) n (%)
same,TEAE: Gastritis NOS,3 (<1%) n (%)
same,TEAE: Gastroenteritis NOS,9 (2%) n (%)
same,TEAE: Gastroenteritis Viral NOS,11 (2%) n (%)
same,TEAE: Gastrointestinal Atonic and Hypomotility Disorders NEC,133 (25%) n (%)
same,TEAE: Gastrointestinal Disorders,268 (50%) n (%)
same,TEAE: Gastrointestinal Disorders NEC,3 (<1%) n (%)
same,TEAE: Gastrointestinal Dyskinetic Disorders,4 (<1%) n (%)
same,TEAE: Gastrointestinal Histopathology Procedures,37 (7%) n (%)
same,TEAE: Gastrointestinal Infections - Pathogen Class Unspecified,9 (2%) n (%)
same,TEAE: Gastrointestinal Inflammatory Disorders NEC,2 (<1%) n (%)
same,TEAE: Gastrointestinal Motility Disorder NOS,3 (<1%) n (%)
same,TEAE: Gastrointestinal Mucosal Dystrophies and Secretion Disorders,1 (<1%) n (%)
same,TEAE: Gastrointestinal Signs and Symptoms NEC,4 (<1%) n (%)
same,TEAE: Gastrointestinal Spastic and Hypermotility Disorders,5 (<1%) n (%)
same,TEAE: Gastrointestinal and Abdominal Pains (Excl Oral and Throat),69 (13%) n (%)
same,TEAE: General Disorders and Administration Site Conditions,42 (8%) n (%)
same,TEAE: General Signs and Symptoms NEC,9 (2%) n (%)
same,TEAE: Gilbert's Syndrome,1 (<1%) n (%)
same,TEAE: Gingival Abscess,2 (<1%) n (%)
same,TEAE: Gingival Atrophy,1 (<1%) n (%)
same,TEAE: Gingival Disorders NEC,3 (<1%) n (%)
same,TEAE: Gingival Pain,1 (<1%) n (%)
same,TEAE: Gingival Pains,1 (<1%) n (%)
same,TEAE: Gingivitis,2 (<1%) n (%)
same,TEAE: Gingivitis Infection NOS,1 (<1%) n (%)
same,TEAE: Glucose Tolerance Impaired,1 (<1%) n (%)
same,TEAE: Glucose Urine Present,1 (<1%) n (%)
same,TEAE: Glycosuria,1 (<1%) n (%)
same,TEAE: Goitre,1 (<1%) n (%)
same,TEAE: Gout,2 (<1%) n (%)
same,TEAE: Groin Pain,1 (<1%) n (%)
same,TEAE: Haematocrit Decreased,1 (<1%) n (%)
same,TEAE: Haematoma NOS,1 (<1%) n (%)
same,TEAE: Haematuria,4 (<1%) n (%)
same,TEAE: Haemoglobin Decreased,1 (<1%) n (%)
same,TEAE: Haemorrhoidal Haemorrhage,4 (<1%) n (%)
same,TEAE: Haemorrhoids,11 (2%) n (%)
same,TEAE: Haemorrhoids Aggravated,1 (<1%) n (%)
same,TEAE: Haemorrhoids and Gastrointestinal Varices (Excl Oesophageal),15 (3%) n (%)
same,TEAE: Halitosis,1 (<1%) n (%)
same,TEAE: Hallucination NOS,1 (<1%) n (%)
same,"TEAE: Hallucination, Auditory",1 (<1%) n (%)
same,TEAE: Hand Fracture,1 (<1%) n (%)
same,TEAE: Headache NOS,31 (6%) n (%)
same,TEAE: Headache NOS Aggravated,5 (<1%) n (%)
same,TEAE: Headaches NEC,39 (7%) n (%)
same,TEAE: Hearing Losses,1 (<1%) n (%)
same,TEAE: Heart Rate Increased,2 (<1%) n (%)
same,TEAE: Heart Rate and Pulse Investigations,2 (<1%) n (%)
same,TEAE: Heat Exhaustion,1 (<1%) n (%)
same,TEAE: Heat Injuries (Excl Thermal Burns),1 (<1%) n (%)
same,TEAE: Helicobacter Pylori Antibody Positive,1 (<1%) n (%)
same,TEAE: Hepatitis NOS,1 (<1%) n (%)
same,TEAE: Hepatobiliary Disorders,5 (<1%) n (%)
same,TEAE: Hepatobiliary Signs and Symptoms,1 (<1%) n (%)
same,TEAE: Hepatocellular Damage and Hepatitis NEC,1 (<1%) n (%)
same,TEAE: Hepatosplenomegaly NOS,1 (<1%) n (%)
same,TEAE: Hernia NOS,1 (<1%) n (%)
same,TEAE: Hernia Repair NOS,1 (<1%) n (%)
same,TEAE: Hernia Repairs,1 (<1%) n (%)
same,TEAE: Hernias NEC,1 (<1%) n (%)
same,TEAE: Herpes Simplex,3 (<1%) n (%)
same,TEAE: Herpes Simplex Aggravated,1 (<1%) n (%)
same,TEAE: Herpes Viral Infections,5 (<1%) n (%)
same,TEAE: Herpes Zoster,1 (<1%) n (%)
same,TEAE: Hiatus Hernia,2 (<1%) n (%)
same,TEAE: Hot Flushes NOS,1 (<1%) n (%)
same,TEAE: Hypercholesterolaemia,6 (1%) n (%)
same,TEAE: Hyperglycaemia NOS,3 (<1%) n (%)
same,TEAE: Hyperglycaemic Conditions NEC,4 (<1%) n (%)
same,TEAE: Hyperkeratoses,1 (<1%) n (%)
same,TEAE: Hyperkeratosis,1 (<1%) n (%)
same,TEAE: Hyperlipidaemia NOS,1 (<1%) n (%)
same,TEAE: Hyperlipidaemias NEC,1 (<1%) n (%)
same,TEAE: Hyperreflexia,1 (<1%) n (%)
same,TEAE: Hypersensitivity NOS,2 (<1%) n (%)
same,TEAE: Hypertension Aggravated,2 (<1%) n (%)
same,TEAE: Hypertension NOS,13 (2%) n (%)
same,TEAE: Hypoaesthesia,2 (<1%) n (%)
same,TEAE: Hypotension NOS,1 (<1%) n (%)
same,TEAE: Immune System Disorders,9 (2%) n (%)
same,TEAE: Inborn Errors of Bilirubin Metabolism,1 (<1%) n (%)
same,TEAE: Infected Varicose Vein,1 (<1%) n (%)
same,TEAE: Infections NEC,4 (<1%) n (%)
same,TEAE: Infections and Infestations,173 (32%) n (%)
same,TEAE: Influenza,18 (3%) n (%)
same,TEAE: Influenza Like Illness,4 (1%) n (%)
same,TEAE: Influenza Viral Infections,18 (3%) n (%)
same,TEAE: Ingrowing Nail,1 (<1%) n (%)
same,TEAE: Inguinal Hernia NOS,1 (<1%) n (%)
same,TEAE: Inguinal Hernias,1 (<1%) n (%)
same,"TEAE: Injury, Poisoning and Procedural Complications",47 (9%) n (%)
same,TEAE: Inner Ear Disorders NEC,1 (<1%) n (%)
same,TEAE: Inner Ear Infections and Inflammations,3 (<1%) n (%)
same,TEAE: Inner Ear Signs and Symptoms,3 (<1%) n (%)
same,TEAE: Insomnia,5 (<1%) n (%)
same,TEAE: Insomnia Exacerbated,1 (<1%) n (%)
same,TEAE: Intermenstrual Bleeding*,1 (<1%) n (%)
same,TEAE: Intervertebral Disc Degeneration NOS,2 (<1%) n (%)
same,TEAE: Intervertebral Disc Disorder NOS,1 (<1%) n (%)
same,TEAE: Intervertebral Disc Disorders NEC,5 (<1%) n (%)
same,TEAE: Intervertebral Disc Herniation,4 (<1%) n (%)
same,TEAE: Intestinal Haemorrhages,8 (1%) n (%)
same,TEAE: Intraocular Pressure Increased,2 (<1%) n (%)
same,TEAE: Investigations,126 (24%) n (%)
same,TEAE: Irritability,1 (<1%) n (%)
same,TEAE: Irritable Bowel Syndrome,1 (<1%) n (%)
same,TEAE: Irritable Bowel Syndrome Aggravated,3 (<1%) n (%)
same,TEAE: Ischaemic Coronary Artery Disorders,4 (<1%) n (%)
same,TEAE: Joint Related Disorders NEC,2 (<1%) n (%)
same,TEAE: Joint Related Signs and Symptoms,14 (3%) n (%)
same,TEAE: Joint Sprain,4 (<1%) n (%)
same,TEAE: Joint Swelling,1 (<1%) n (%)
same,TEAE: Kidney Infection NOS,1 (<1%) n (%)
same,TEAE: Labyrinthitis NOS,3 (<1%) n (%)
same,TEAE: Laceration,6 (1%) n (%)
same,TEAE: Lacrimal Disorders,2 (<1%) n (%)
same,TEAE: Lactose Intolerance,1 (<1%) n (%)
same,TEAE: Laryngeal and Adjacent Sites Disorders NEC (Excl Infections and Neoplasms),3 (<1%) n (%)
same,TEAE: Laryngitis NOS,3 (<1%) n (%)
same,TEAE: Leiomyoma NOS,1 (<1%) n (%)
same,TEAE: Lethargy,1 (<1%) n (%)
same,TEAE: Leukopenia NOS,2 (<1%) n (%)
same,TEAE: Leukopenias NEC,2 (<1%) n (%)
same,TEAE: Libido Decreased,1 (<1%) n (%)
same,"TEAE: Lid, Lash and Lacrimal Structural Disorders (Excl Congenital)",1 (<1%) n (%)
same,TEAE: Ligament Sprain,2 (<1%) n (%)
same,TEAE: Limb Discomfort NOS,1 (<1%) n (%)
same,TEAE: Limb Injuries NEC (Incl Traumatic Amputation),4 (<1%) n (%)
same,TEAE: Limb Injury NOS,2 (<1%) n (%)
same,TEAE: Lip and Palate Disorders NEC,1 (<1%) n (%)
same,TEAE: Lipid Metabolism Disorder NOS,1 (<1%) n (%)
same,TEAE: Lipid Metabolism and Deposit Disorders NEC,1 (<1%) n (%)
same,TEAE: Lipoma NOS,2 (<1%) n (%)
same,TEAE: Liver Function Analyses,23 (4%) n (%)
same,TEAE: Liver Function Tests NOS Abnormal,2 (<1%) n (%)
same,TEAE: Localised Infection,2 (<1%) n (%)
same,TEAE: Localised Osteoarthritis,1 (<1%) n (%)
same,TEAE: Loss of Consciousness,1 (<1%) n (%)
same,TEAE: Lower Limb Fracture NOS,1 (<1%) n (%)
same,TEAE: Lower Limb Fractures and Dislocations,3 (<1%) n (%)
same,TEAE: Lower Respiratory Tract Signs and Symptoms,2 (<1%) n (%)
same,TEAE: Lower Respiratory Tract and Lung Infections,28 (5%) n (%)
same,TEAE: Lymphadenopathy,2 (<1%) n (%)
same,TEAE: Lymphangitis and Lymphatic Disorders NEC,2 (<1%) n (%)
same,TEAE: Lymphocyte Count Increased,2 (<1%) n (%)
